# Experimental data reported in ChEMBL document CHEMBL1127033, “Synthesis and anti-HIV-1 activity of a series of imidazo[1,5-b]pyridazines” (J Med Chem, 1993).
# Values joined by “and” are separate entries in the source; they are usually repeats but may differ in a detail not shown here. Equal values may be shown once.
# Tests used:
# [1] = test system: MT4; experiment: Inhibition of growth in uninfected MT-4 cells in MTM assay; format: functional, cell-based; conditions: Homo sapiens
# [2] = target: T1, Human immunodeficiency virus type 1 reverse transcriptase (Human immunodeficiency virus 1, UniProt Q72547); experiment: In vitro inhibitory concentration against reverse transcriptase of HIV-1 (RT)
# [3] = test system: C8166; experiment: Inhibition of syncytia formation in infected C8166-cells; format: functional, cell-based; conditions: Homo sapiens
# [4] = test system: C8166; experiment: Inhibition of p24 antigen formation in infected C8166-cells; format: functional, cell-based; conditions: Homo sapiens
# [5] = test system: Human immunodeficiency virus 1; experiment: (§1) Inhibition of HIV-1 (strain A17)-infected MT-4 cells; format: functional, organism-based; conditions: Human immunodeficiency virus 1, MT4
# [6] = target: T1, Human immunodeficiency virus type 1 reverse transcriptase; experiment: Inhibition of reverse transcriptase of HIV-1 (strain RF)-infected MT-4 cells in RPMI 1640 growth medium in MTM assay; Toxic; format: cell-based; conditions: mt4
# [7] = target: T1, Human immunodeficiency virus type 1 reverse transcriptase; experiment: Inhibition of reverse transcriptase activity of HIV-1 in the presence of [alpha35 S] TTP as cosubstrate.
# [8] = test system: MT4; experiment: as §1; format: functional, cell-based; conditions: Homo sapiens
SMILES,IC50 [1],IC50 [2],EC50 [3],EC50 [4],other results
COc1ccc2c(C)nc(CCCCCCC(=O)c3ccccc3)n2n1,250000 nM,640 nM,–,–,–
CSc1ccc2c(C)nc(CCCCCCC(=O)c3ccccc3)n2n1,27000 nM,80 nM,–,–,–
Cc1nc(CCCCCCC(O)c2ccccc2)n2nc(-n3ccnc3)ccc12 (stereo unspecified),26000 nM,230 nM,6 nM,4 nM,–
Cc1nc(CCCCCCC(=O)c2ccccc2)n2nc(-n3ccnc3C)ccc12,260000 nM,2500 nM,–,–,–
CCc1nc(CCCCCCC(=O)c2ccccc2)n2nc(Cl)ccc12,25000 nM,2000 nM,–,–,–
Cc1nc(CCCCCOC(=O)C2CCCC2)n2nc(Cl)ccc12,250000 nM,22000 nM,–,–,–
Cc1nc(CCCCCC(=O)c2ccccc2)n2nc(Cl)ccc12,250000 nM,4800 nM,–,–,–
Cc1nc(CCCCCCC(=O)c2ccccc2)n2nc(Cl)ccc12,25000 nM,840 nM,80 nM,80 nM,–
CNc1ccc2c(C)nc(CCCCCCC(=O)c3ccccc3)n2n1,25000 nM,3400 nM,–,–,–
Cc1nc(CCCCCCC(O)c2ccccc2)n2nc(Cl)ccc12 (stereo unspecified),250000 nM,380 nM,< 80 nM,< 80 nM,–
O=C(CCCCCCc1ncc2ccc(Cl)nn12)c1ccccc1,25000 nM,340 nM,210 nM,340 nM,–
Cc1nc(CCCCCCC(=O)c2ccccc2)n2nc(-n3cccc3)ccc12,26000 nM,80 nM,7 nM,5 nM,–
Cc1nc(CCCCCCC(=O)c2ccccc2)n2nc(-n3cncn3)ccc12,26000 nM,100 nM,–,–,–
CC(=O)OCCCCCc1nc(C)c2ccc(Cl)nn12,–,110000 nM,–,–,–
Cc1nc(CCCCCCC(=O)c2ccccc2)n2nc(-n3cnnc3)ccc12,260000 nM,2600 nM,–,–,–
Cc1nc(CCCCCCCC(=O)c2ccccc2)n2nc(Cl)ccc12,250000 nM,3000 nM,–,–,–
Cc1cn(-c2ccc3c(C)nc(CCCCCCC(=O)c4ccccc4)n3n2)cn1,260000 nM,550 nM,65 nM,160 nM,–
Cc1nc(CCCCCCC(=O)c2ccccc2)n2nc(N3CCCCC3)ccc12,–,6700 nM,–,–,–

SMILES,IC50 [1],IC50 [2],EC50 [3],EC50 [4],other results
Cc1nc(CCCCCC(=O)Cc2ccccc2)n2nc(Cl)ccc12,28000 nM,3900 nM,–,–,–
Cc1nc(CCCCCO)n2nc(Cl)ccc12,–,> 100000 nM,–,–,–
Cc1nc(CCCCCCC(=O)c2ccccc2)n2nc(-n3ccnc3)ccc12,26000 nM,0.6 nM,0.6 nM,5 nM,EC50 [5]: 1900 nM
Cc1nc(CCCCCCC(=O)c2ccccc2)n2nc(-n3cccn3)ccc12,26000 nM,3400 nM,–,–,–
Cc1nc(CCCCCOC(=O)c2ccccc2)n2nc(Cl)ccc12,> 25000 nM,1340 nM and 1300 nM,1600 nM,1100 nM,–
Cc1nc(CCCCCCC(=O)c2ccccc2)n2nc(-n3nccn3)ccc12,260000 nM,1300 nM,–,–,–
Cc1nc(CCCCCCC(=O)c2ccccc2)n2nc(N)ccc12,30000 nM,3000 nM,–,–,–
Cc1nc(CCCCCCC(=O)c2ccccc2)n2ncccc12,280000 nM,560 nM,–,–,–
Cc1nc(CCCCCCCc2ccccc2)n2nc(Cl)ccc12,250000 nM,14000 nM,–,–,–
Cc1nc(CCCCCCC(=O)c2ccccc2)n2nc(N3CCCC3)ccc12,< 30 nM,50 nM,–,–,EC50 [6]: Toxic
Cc1nc(CCCCCCC(=O)c2ccccc2)n2nc(N(C)C)ccc12,27000 nM,270 nM,–,–,–
CC(C)c1nc(CCCCCCC(=O)c2ccccc2)n2nc(Cl)ccc12,–,110000 nM,–,–,–
Cc1nc(CCCCCCC(=O)c2ccccc2)n2nc(-n3cncc3C)ccc12,26000 nM,100 nM,10 nM,30 nM,–
Cc1nc(CCCCCCC(=O)c2ccccc2)n2nc(-n3ccnn3)ccc12,26000 nM,640 nM,–,–,–
Cc1nc(CCCCCOCc2ccccc2)n2nc(Cl)ccc12,290000 nM,2300 nM,580 nM,380 nM,–
CCc1cc(NCc2nc3c(Cl)ccc(Cl)c3o2)c(O)nc1C [L-697661],–,–,7 nM,7 nM,IC50 [7]: 850 nM; EC50 [8]: > 10000 nM
Cc1cn([C@H]2C[C@H](N=[N+]=[N-])[C@@H](CO)O2)c(=O)[nH]c1=O [ZIDOVUDINE],–,–,30 nM,20 nM,EC50 [5]: 10 nM
